Measurements from patent US4762843A, “Hetero [f] fused carbocyclic pyridines as dopaminergic agents” (Warner-Lambert Company, priority 1987, dated 1988).
Structures can show the parent of a compound that is named as a salt. Where two headings read alike, the source gives them in different places. One block for each molecule: values may come before it.

How the values were obtained:
haloperidol binding = molecular target: T1, haloperidol binding (Bos taurus, UniProt P20288); assay: Inhibition of haloperidol binding in a receptor binding assay; conditions: read-out: Percent Inhibition Haloperidol Binding
T1 construct: from tissue
Method: (§1) The compounds of formula I are valuable dopaminergic agents. […] Thus, the compounds of formula I were tested for their ability to inhibit locomotor activity in mice according to the assay described in Pharmacol. Biochem. Behav. 1978 (8) 97; for their ability to inhibit haloperidol binding in a receptor binding assay described in Mol. Pharmacol. 1976 (12) 800; and for their ability to inhibit dopamine synthesis in rats according to the protocol described in Naumyn-Schmiedeberg's Arch. Pharmacol., 1976 (296) 5. The above test methods are incorporated herein by reference.

[1] = system: locomotor activity in mice; assay: Inhibition of locomotor activity in mice; format: in vivo; conditions: Mus musculus, read-out: Inhibition of Locomotor Activity in Mice (ED50)
Method: as §1

dopamine synthesis = assay: Inhibition of dopamine synthesis in rats; format: in vivo; conditions: Rattus norvegicus, read-out: Percent Inhibition of Dopamine Synthesis
Method: as §1

T1 sequence (P20288 whole entry): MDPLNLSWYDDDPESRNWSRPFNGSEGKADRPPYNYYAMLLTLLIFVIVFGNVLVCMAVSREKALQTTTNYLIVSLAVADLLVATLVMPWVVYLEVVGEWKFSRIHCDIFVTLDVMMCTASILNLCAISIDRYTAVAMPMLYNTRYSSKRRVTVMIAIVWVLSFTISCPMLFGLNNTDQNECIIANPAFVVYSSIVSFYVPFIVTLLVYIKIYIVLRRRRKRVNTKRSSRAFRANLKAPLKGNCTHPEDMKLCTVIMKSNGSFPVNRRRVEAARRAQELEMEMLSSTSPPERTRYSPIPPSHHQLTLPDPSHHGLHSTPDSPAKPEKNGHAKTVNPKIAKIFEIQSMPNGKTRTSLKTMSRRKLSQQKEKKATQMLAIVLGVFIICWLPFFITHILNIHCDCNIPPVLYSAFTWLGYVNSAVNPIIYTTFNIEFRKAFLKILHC

inhibition at 5 µM (haloperidol binding; at 5 × 10^-6 M): 23%
SMILES: CCCN1CCC=C2c3nc(NC(C)=O)sc3CCC21 (racemic) [Example 15a, (±) N-(4,5,5a,6,7,8-Hexahydro-6-propylthiazolo[4,5-f]quinolin-2-yl)acetamide]
ED50 ([1]; mice, IP): 16.3 mg/kg

inhibition at 5 µM (haloperidol binding; at 5 × 10^-6 M): 61%
SMILES: Nc1nc2c(s1)CCC1C2=CCCN1Cc1ccccc1 (racemic) [Example 5g, (±) 4,5,5a,6,7,8-Hexahydro-6-(phenylmethyl)thiazolo [4,5-f]quinolin-2-amine, dihydrochloride, hydrate]
ED50 ([1]; mice, IP): 26.1 mg/kg

SMILES: CCCN1CCC=C2c3nc(N)sc3CCC21 (racemic) [Example 5, (±) 4,5,5a,6,7,8-Hexahydro-6-propylthiazolo[4,5-f]quinolin-2-amine]
inhibition at 1 µM (haloperidol binding): 43% | ED50 ([1]; ip): 5.5 mg/kg | inhibition at 5 mg/kg (dopamine synthesis): 53%

inhibition at 10 µM (haloperidol binding; at 1 × 10^-5): 21%
SMILES: C=CCN1CCC=C2c3nc(NC(C)=O)sc3CCC21 (racemic) [Example 15b, (±) N-[4,5,5a,6,7,8-Hexahydro-6-(2-propenyl)thiazolo [4,5-f]quinolin-2-yl]acetamide]
ED50 ([1]; mice, IP): 3.1 mg/kg | inhibition at 5 mg/kg (dopamine synthesis; rats, at 5 mg/kg): 82%

SMILES: Nc1nc2c(s1)CCC1C2=CCCN1CC1CC1 (racemic) [Example 5e, (±) 6-(Cyclopropylmethyl)-4,5,5a,6,7,8-hexahydrothiazolo[4,5-f]quinolin-2-amine, dihydrochloride]
inhibition at 1 µM (haloperidol binding): 62% | ED50 ([1]; ip): 12 mg/kg

SMILES: CCCN1CCC=C2c3nc(N)sc3CCC21 (single isomer, unassigned; (+)) [Example 16, (+) 4,5,5a,6,7,8-hexahydro-6-propylthiazolo[4,5-f]quinolin-2-amine, dihydrochloride]
inhibition at 5 µM (haloperidol binding): 76% | ED50 ([1]; ip): 2.5 mg/kg | inhibition at 3 mg/kg (dopamine synthesis): 100%

SMILES: CCCN1CCC[C@H]2c3sc(N)nc3CC[C@@H]21 (racemic) [Example 17, (±) trans-4,5,5a,6,7,8,9,9a-Octahydro-6-propylthiazolo[5,4-f]quinolin-2-amine]
inhibition at 1 µM (haloperidol binding): 37% | ED50 ([1]; ip): 0.7 mg/kg | inhibition at 5 mg/kg (dopamine synthesis): 100%

SMILES: CCCCN1CCC=C2c3nc(N)sc3CCC21 (racemic) [Example 5c, (±) 6-Butyl-4,5,5a,6,7,8-hexahydrothiazolo[4,5-f]quinolin-2-amine, dihydrochloride, hemihydrate]
inhibition at 10 µM (haloperidol binding): 70% | ED50 ([1]; ip): 14.7 mg/kg | inhibition at 10 mg/kg (dopamine synthesis): 18%

inhibition at 5 µM (haloperidol binding; at 5 × 10^-6 M): 67%
SMILES: Nc1nc2c(s1)CCC1C2=CCCN1CCc1ccccc1 (racemic) [Example 5f, (±) 4,5,5a,6,7,8-Hexahydro-6-(2-phenylethyl)thiazolo [4,5-f]quinolin-2-amine]
ED50 ([1]; mice, IP): 31.3 mg/kg

SMILES: Nc1nc2c(s1)CCC1NCCC=C21 (racemic) [Example 40, (±) 4,5,5a,6,7,8-Hexahydrothiazolo[4,5-f]quinolin-2-amine, dihydrochloride]
inhibition at 5 µM (haloperidol binding): 77% | ED50 ([1]; ip): 11.6 mg/kg | inhibition at 10 mg/kg (dopamine synthesis): 44%

SMILES: CCN1CCC=C2c3nc(N)sc3CCC21 (racemic) [Example 5b, (±) 6-Ethyl-4,5,5a,6,7,8-hexahydrothiazolo[4,5-f]quinolin-2-amine]
inhibition at 5 µM (haloperidol binding): 68% | ED50 ([1]; ip): 0.62 mg/kg | inhibition at 1 mg/kg (dopamine synthesis): 60%

SMILES: C=CCN1CCC=C2c3nc(N)sc3CCC21 (racemic) [Example 5d, (±) 4,5,5a,6,7,8-Hexahydro-6-(2-propenyl)thiazolo [4,5-f]quinolin-2-amine, dihydrochloride]
ED50 ([1]; ip): 0.24 mg/kg | inhibition at 5 mg/kg (dopamine synthesis): 100%

SMILES: CN1CCC=C2c3nc(N)sc3CCC21 (racemic) [Example 5a, (±) 4,5,5a,6,7,8-Hexahydro-6-methylthiazolo[4,5-f]quinolin-2-amine]
inhibition at 5 µM (haloperidol binding): 62% | ED50 ([1]; ip): 2.6 mg/kg | inhibition at 10 mg/kg (dopamine synthesis): 92%
